Where two headings read alike, the source gives them in different places.
Experiments:
db/db mice = experiment: Pharmacodynamic effects in db/db mice, single subcutaneous administration (blood glucose); format: in vivo; details: single s.c. 10 nmol/kg
Method in brief: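 Male db/db mice aged 8-9 weeks, fed ad libitum, were grouped by initial glucose and body weight (n=6) and dosed once subcutaneously. Random blood glucose from tail tip was tracked over 0 to 120 hours against vehicle. Hypoglycemic duration is the longest time with a significant difference from vehicle (T-test, p<0.05).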

[1] = Pharmacokinetics in C57 mice; details: in vivo
Procedure: After subcutaneous or intravenous administration to C57 mice, plasma was collected and the drug concentration in plasma was determined to illustrate the in vivo pharmacokinetic properties of the compound according to the present invention. […] 20.0 µL of thawed plasma sample was taken. 20 µL of 50% aqueous methanol solution (containing 100 ng mL^-1 Tolbutamide) and 60 µL of acetonitrile were added sequentially to precipitate protein. The mixture was vortexed for 5 minutes, and centrifuged at 4815 rpm for 8 minutes. 50.0 µL of the supernatant was taken, into which 50.0 µL of 0.5% aqueous formic acid solution was added. The mixture was vortexed for 5 minutes. 50 µL of the mixture solution was sampled and injected into the LC-MS/MS to determine the drug concentration in plasma. Based on the drug concentration in plasma of the compounds in C57 mice, the pharmacokinetic parameters were calculated by applying the software Winnolin 8.3 in a non-compartmental model, and the results were shown in Table 7 and Table 8 below. Table 7 Average Pharmacokinetic Parameters after Single Subcutaneous Administration to Mice

human GIP Receptor = molecular target: T1, human GIP Receptor (Homo sapiens, UniProt P48546); experiment: In vitro binding activity to human GIP receptor ([125I]GIP displacement, crude cell membranes); details: ratio of the Ki value of the endogenous ligand to the Ki value of the test compound; larger ratio = stronger binding
T1 construct: expressed in transfected cells
T1 sequence (P48546 22-466): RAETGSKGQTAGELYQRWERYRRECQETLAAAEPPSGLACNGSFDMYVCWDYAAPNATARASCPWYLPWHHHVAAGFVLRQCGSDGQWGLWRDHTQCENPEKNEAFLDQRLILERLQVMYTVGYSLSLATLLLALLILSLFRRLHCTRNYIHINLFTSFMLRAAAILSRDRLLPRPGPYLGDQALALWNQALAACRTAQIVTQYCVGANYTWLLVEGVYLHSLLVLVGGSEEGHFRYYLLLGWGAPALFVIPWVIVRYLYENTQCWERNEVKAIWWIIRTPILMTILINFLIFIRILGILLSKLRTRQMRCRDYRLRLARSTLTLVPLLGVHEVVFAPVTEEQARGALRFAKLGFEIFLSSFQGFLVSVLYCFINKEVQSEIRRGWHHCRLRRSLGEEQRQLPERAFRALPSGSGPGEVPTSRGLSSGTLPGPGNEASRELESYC

## CC[C@H](C)[C@H](NC(=O)C(C)(C)NC(=O)[C@H](Cc1ccc(O)cc1)NC(=O)[C@H](CC(=O)O)NC(=O)[C@H](CO)NC(=O)[C@@H](NC(=O)C(C)(Cc1ccccc1)NC(=O)[C@@H](NC(=O)CNC(=O)[C@H](CCC(=O)O)NC(=O)C(C)(C)NC(=O)[C@@H](N)Cc1ccc(O)cc1)[C@@H](C)O)[C@@H](C)O)C(=O)NC(C)(C)C(=O)N[C@@H](CC(C)C)C(=O)N[C@@H](CC(=O)O)C(=O)N[C@@H](CCCCN)C(=O)N[C@@H](CCC(N)=O)C(=O)N[C@@H](C)C(=O)N[C@@H](CCC(N)=O)C(=O)N[C@@H](C)C(=O)N[C@@H](CCC(=O)O)C(=O)N[C@@H](Cc1ccccc1)C(=O)N[C@H](C(=O)N[C@@H](CCCCNC(=O)COCCOCCNC(=O)COCCOCCNC(=O)COCCOCCNC(=O)CC[C@H](NC(=O)CCCCCCCCCCCCCCCCCCCCC(=O)O)C(=O)O)C(=O)N[C@@H](Cc1c[nH]c2ccccc12)C(=O)N[C@@H](CC(C)C)C(=O)N[C@@H](CC(C)C)C(=O)N[C@@H](CCCCN)C(=O)NCC(=O)NCC(=O)N1CCC[C@H]1C(=O)N[C@@H](CO)C(=O)N[C@@H](CO)C(=O)NCC(=O)N[C@@H](C)C(=O)N1CCC[C@H]1C(=O)N1CCC[C@H]1C(=O)N1CCC[C@H]1C(=O)N[C@@H](CO)C(=O)N[C@@H](CCCCN)C(N)=O)C(C)C (stereo partly drawn) [Compound P016]
db/db mice
  inhibition of the blood glucose AUC, times of that of Tirzepatide: 2.2 times
db/db mice; Group 2, longest time with p<0.05 vs. vehicle
  Hypoglycemic Duration: 104 h
[1]; C57, mouse, iv, MRT(0-t)
  MRT: 19.9 h
[1]; C57, mouse, iv, MRT(0-∞)
  MRT: 26.6 h
[1]; C57, mouse, sc, MRT(0-t)
  MRT: 26 h
[1]; C57, mouse, sc, MRT(0-∞)
  MRT: 35.9 h
[1]; mouse, sc, C57 mice, single subcutaneous administration, read-out: AUC(0-t)
  AUC(0-t): 15900 ng·h/mL
[1]; mouse, sc, C57 mice, single subcutaneous administration, read-out: AUC(0-∞)
  AUC(0-inf): 18200 ng·h/mL
[1]; mouse, sc, C57 mice, single subcutaneous administration, read-out: Cmax
  Cmax: 434 ng/mL
[1]; mouse, sc, C57 mice, single subcutaneous administration, read-out: T1/2 (converted)
  half-life: 23.1 h
[1]; mouse, sc, C57 mice, single subcutaneous administration, read-out: Tmax
  Tmax: 8 h
[1]; mouse, C57 mice, single intravenous administration, read-out: AUC(0-t)
  AUC(0-t): 11100 ng·h/mL
[1]; mouse, C57 mice, single intravenous administration, read-out: AUC(0-∞)
  AUC(0-inf): 12100 ng·h/mL
[1]; mouse, C57 mice, single intravenous administration, read-out: C0
  C0: 1150 ng/mL
[1]; mouse, C57 mice, single intravenous administration, read-out: T1/2 (converted)
  half-life: 20.1 h
Human GIP Receptor
  GIPR Ki ratio: 0.11

## CC[C@H](C)[C@H](NC(=O)C(C)(C)NC(=O)[C@H](Cc1ccc(O)cc1)NC(=O)[C@H](CC(=O)O)NC(=O)[C@H](CO)NC(=O)[C@@H](NC(=O)C(C)(Cc1ccccc1)NC(=O)[C@@H](NC(=O)CNC(=O)[C@H](CCC(=O)O)NC(=O)C(C)(C)NC(=O)[C@@H](N)Cc1ccc(O)cc1)[C@@H](C)O)[C@@H](C)O)C(=O)NC(C)(C)C(=O)N[C@@H](CC(C)C)C(=O)N[C@@H](CC(=O)O)C(=O)N[C@@H](CCCCN)C(=O)N[C@@H](CCC(N)=O)C(=O)N[C@@H](C)C(=O)N[C@@H](CCC(N)=O)C(=O)N[C@@H](C)C(=O)N[C@@H](CCC(=O)O)C(=O)N[C@@H](Cc1ccccc1)C(=O)N[C@H](C(=O)N[C@@H](CCCCNC(=O)COCCOCCNC(=O)COCCOCCNC(=O)CC[C@H](NC(=O)CCCCCCCCCCCCCCCCCCCCC(=O)O)C(=O)O)C(=O)N[C@@H](Cc1c[nH]c2ccccc12)C(=O)N[C@@H](CC(C)C)C(=O)N[C@@H](CC(C)C)C(=O)N[C@@H](CCCCN)C(=O)NCC(=O)NCC(=O)N1CCC[C@H]1C(=O)N[C@@H](CO)C(=O)N[C@@H](CO)C(=O)NCC(=O)N[C@@H](C)C(=O)N1CCC[C@H]1C(=O)N1CCC[C@H]1C(=O)N1CCC[C@H]1C(=O)N[C@@H](CO)C(=O)N[C@@H](CCCCN)C(N)=O)C(C)C (stereo partly drawn) [Compound P014]
db/db mice
  inhibition of the blood glucose AUC, times of that of P001: 2.6 times
  inhibition of the blood glucose AUC, times of that of Tirzepatide: 1.7 times
db/db mice; Group 1, longest time with p<0.05 vs. vehicle
  Hypoglycemic Duration: 104 h
[1]; C57, mouse, iv
  AUC(0-inf): 18200 ng·h/mL
  AUC(0-t): 17500 ng·h/mL
  C0: 1940 ng/mL
  half-life: 17.2 h
[1]; C57, mouse, iv, MRT(0-t)
  MRT: 15.7 h
[1]; C57, mouse, iv, MRT(0-∞)
  MRT: 19.2 h
[1]; C57, mouse, sc
  AUC(0-inf): 30200 ng·h/mL
  AUC(0-t): 27300 ng·h/mL
  Cmax: 852 ng/mL
  Tmax: 6 h
  half-life: 20.3 h
[1]; C57, mouse, sc, MRT(0-t)
  MRT: 22.9 h
[1]; C57, mouse, sc, MRT(0-∞)
  MRT: 30.3 h
Human GIP Receptor
  GIPR Ki ratio: 0.08
